According to patent US20240238423A9, “TETRAHYDROISOQUINOLINE HETEROBIFUNCTIONAL BCL-XL DEGRADERS” (Treeline Biosciences, Inc., priority 2022, published 2024):
Read-outs that look alike come from different tables or passages of the source.

Molecular target: T1, Human BCL-XL protein (N-terminal HiBiT tagged BCL-XL in HT1080 cells) (Homo sapiens, UniProt Q07817)
T1 construct: expressed in transfected cells; host or cells: HT-1080 (ATCC CCL-121), stably transduced with lentivirus pLV-UBC-N-HiBiT-BCL-XL-PGK-puro and selected with puromycin
Experiment: HiBiT based degradation assay
Type: cell-based
Details: HT1080 cells expressing HiBiT-BCL-XL; for Ymin (24 h) / Ymin (6 h): BCL-XL degradation normalized with DMSO control; for DC50: BCL-XL degradation
In short: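 This HiBiT degradation assay measured loss of BCL-XL in HT1080 cells that stably express an N-terminal HiBiT-BCL-XL fusion delivered by lentivirus. Cells were added to compound-spotted 384-well plates, and luminescence was read on a PHERAstar FSX reader. Signal was expressed relative to DMSO controls, curves were fitted by four-parameter logistic regression, and for hook-shaped curves the Ymin point served as the bottom plateau when calculating EC50.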

T1 sequence (Q07817 whole entry): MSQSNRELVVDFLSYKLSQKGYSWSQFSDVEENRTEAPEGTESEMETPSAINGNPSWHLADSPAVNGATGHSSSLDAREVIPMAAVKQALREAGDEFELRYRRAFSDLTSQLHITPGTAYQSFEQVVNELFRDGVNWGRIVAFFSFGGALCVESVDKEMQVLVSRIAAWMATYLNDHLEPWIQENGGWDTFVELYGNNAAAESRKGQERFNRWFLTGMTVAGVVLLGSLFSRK

Compound | Ymin (24 h) | DC50 (24 h, read-out: EC50 (24 h)) | Ymin (6 h) | DC50 (6 h, read-out: EC50 (6 h))
Cc1c(OCCC(F)(F)C2CCN(CC(=O)Nc3cccc4c(C5CCC(=O)NC5=O)nn(C)c34)CC2)cccc1-c1ccc(N2CCc3cccc(C(=O)Nc4nc5ccccc5s4)c3C2)nc1C(=O)O (stereo not shown) [Compound 196, 6-(8-(benzo[d]thiazol-2-ylcarbamoyl)-3,4-dihydroisoquinolin-2(1H)-yl)-3-(3-(3-(1-(2-((3-(2,6-dioxopiperidin-3-yl)-1-methyl-1H-indazol-7-yl)amino)-2-oxoethyl)piperidin-4-yl)-3,3-difluoropropoxy)-2-methylphenyl)picolinic acid] | B (50% ≤ Ymin < 70%) | 100 to 1000 nM | – | –
Cc1c(OCCN2CCN(CC3CCN(c4ccc5c(C6CCC(=O)NC6=O)nn(C)c5c4)CC3)CC2)cccc1-c1ccc(N2CCc3cccc(C(=O)Nc4nc5ccccc5s4)c3C2)nc1C(=O)O (stereo not shown) [Compound 198, 6-(8-(benzo[d]thiazol-2-ylcarbamoyl)-3,4-dihydroisoquinolin-2(1H)-yl)-3-(3-(2-(4-((1-(3-(2,6-dioxopiperidin-3-yl)-1-methyl-1H-indazol-6-yl)piperidin-4-yl)methyl)piperazin-1-yl)ethoxy)-2-methylphenyl)picolinic acid] | A (Ymin < 50%) | < 100 nM | – | –
Cc1c(Oc2ccc(CC(F)(F)CN3CCN(c4cccc5c(C6CCC(=O)NC6=O)nn(C)c45)CC3)cc2)cccc1-c1ccc(N2CCc3cccc(C(=O)Nc4nc5ccccc5s4)c3C2)nc1C(=O)O (stereo not shown) [Compound 201, 6-[8-(1,3-benzothiazol-2-ylcarbamoyl)-3,4-dihydro-1H-isoquinolin-2-yl]-3-[3-[4-[3-[4-[3-(2,6-dioxo-3-piperidyl)-1-methyl-indazol-7-yl]piperazin-1-yl]-2,2-difluoro-propyl]phenoxy]-2-methyl-phenyl]pyridine-2-carboxylic acid] | A (Ymin < 50%) | 1000 to 10000 nM | B (50% ≤ Ymin < 70%) | 1000 to 10000 nM
Cc1c(OCCCC[C@H]2CCCN(CC(=O)Nc3ccc4c(C5CCC(=O)NC5=O)nn(C)c4c3)C2)cccc1-c1ccc(N2CCc3cccc(C(=O)Nc4nc5ccccc5s4)c3C2)nc1C(=O)O (stereo partly drawn) [Compound 202a, 6-[8-(1,3-benzothiazol-2-ylcarbamoyl)-3,4-dihydro-1H-isoquinolin-2-yl]-3-[3-[4-[(3S)-1-[2-[[3-(2,6-dioxo-3-piperidyl)-1-methyl-indazol-6-yl]amino]-2-oxo-ethyl]-3-piperidyl]butoxy]-2-methyl-phenyl]pyridine-2-carboxylic acid] | A (Ymin < 50%) | < 100 nM | – | –
Cc1c(OCCCC[C@@H]2CCCN(CC(=O)Nc3ccc4c(C5CCC(=O)NC5=O)nn(C)c4c3)C2)cccc1-c1ccc(N2CCc3cccc(C(=O)Nc4nc5ccccc5s4)c3C2)nc1C(=O)O (stereo partly drawn) [Compound 202b, 6-[8-(1,3-benzothiazol-2-ylcarbamoyl)-3,4-dihydro-1H-isoquinolin-2-yl]-3-[3-[4-[(3R)-1-[2-[[3-(2,6-dioxo-3-piperidyl)-1-methyl-indazol-6-yl]amino]-2-oxo-ethyl]-3-piperidyl]butoxy]-2-methyl-phenyl]pyridine-2-carboxylic acid] | A (Ymin < 50%) | < 100 nM | – | –
Cc1c(OCCCCC2CCN(CC(=O)Nc3ccc4c(C5CCC(=O)NC5=O)nn(C)c4c3)CC2)cccc1-c1ccc(N2CCc3cccc(C(=O)Nc4nc5ccccc5s4)c3C2)nc1C(=O)O (stereo not shown) [Compound 203, 6-(8-(benzo[d]thiazol-2-ylcarbamoyl)-3,4-dihydroisoquinolin-2(1H)-yl)-3-(3-(4-(1-(2-((3-(2,6-dioxopiperidin-3-yl)-1-methyl-1H-indazol-6-yl)amino)-2-oxoethyl)piperidin-4-yl)butoxy)-2-methylphenyl)picolinic acid] | A (Ymin < 50%) | < 100 nM | B (50% ≤ Ymin < 70%) | < 100 nM
Cc1c(OCCCCCCCCN2CCN(c3ccc4c(C5CCC(=O)NC5=O)nn(C)c4c3)CC2)cccc1-c1ccc(N2CCc3cccc(C(=O)Nc4nc5ccccc5s4)c3C2)nc1C(=O)O (stereo not shown) [Compound 205, 6-[8-(1,3-benzothiazol-2-ylcarbamoyl)-3,4-dihydro-1H-isoquinolin-2-yl]-3-[3-[8-[4-[3-(2,6-dioxo-3-piperidyl)-1-methyl-indazol-6-yl]piperazin-1-yl]octoxy]-2-methyl-phenyl]pyridine-2-carboxylic acid] | A (Ymin < 50%) | < 100 nM | B (50% ≤ Ymin < 70%) | < 100 nM
Cc1c(OCCCCCCCN2CCN(c3cccc4c(C5CCC(=O)NC5=O)nn(C)c34)CC2)cccc1-c1ccc(N2CCc3cccc(C(=O)Nc4nc5ccccc5s4)c3C2)nc1C(=O)O (stereo not shown) [Compound 206, 6-[8-(1,3-benzothiazol-2-ylcarbamoyl)-3,4-dihydro-1H-isoquinolin-2-yl]-3-[3-[7-[4-[3-(2,6-dioxo-3-piperidyl)-1-methyl-indazol-7-yl]piperazin-1-yl]heptoxy]-2-methyl-phenyl]pyridine-2-carboxylic acid] | B (50% ≤ Ymin < 70%) | < 100 nM | C (Ymin ≥ 70%) | 1000 to 10000 nM
Cc1c(Oc2ccc(CCN3CCN(c4ccc5c(C6CCC(=O)NC6=O)nn(C)c5c4)CC3)cc2)cccc1-c1ccc(N2CCc3cccc(C(=O)Nc4nc5ccccc5s4)c3C2)nc1C(=O)O (stereo not shown) [Compound 208, 6-[8-(1,3-benzothiazol-2-ylcarbamoyl)-3,4-dihydro-1H-isoquinolin-2-yl]-3-[3-[4-[2-[4-[3-(2,6-dioxo-3-piperidyl)-1-methyl-indazol-6-yl]piperazin-1-yl]ethyl]phenoxy]-2-methyl-phenyl]pyridine-2-carboxylic acid] | A (Ymin < 50%) | < 100 nM | – | –

The next lines start with results.

Ymin (24 h) | DC50 (24 h, read-out: EC50 (24 h)) | Compound | Ymin (6 h) | DC50 (6 h, read-out: EC50 (6 h))
B (50% ≤ Ymin < 70%) | 100 to 1000 nM | Cc1c(OCCC[C@H]2CCN(CC(=O)Nc3cccc4c(C5CCC(=O)NC5=O)nn(C)c34)CC2(F)F)cccc1-c1ccc(N2CCc3cccc(C(=O)Nc4nc5ccccc5s4)c3C2)nc1C(=O)O (stereo partly drawn) [Compound 197a, 6-(8-(benzo[d]thiazol-2-ylcarbamoyl)-3,4-dihydroisoquinolin-2(1H)-yl)-3-(3-(3-((4S)-1-(2-((3-(2,6-dioxopiperidin-3-yl)-1-methyl-1H-indazol-7-yl)amino)-2-oxoethyl)-3,3-difluoropiperidin-4-yl)propoxy)-2-methylphenyl)picolinic acid] | – | –
B (50% ≤ Ymin < 70%) | 100 to 1000 nM | Cc1c(OCCC[C@@H]2CCN(CC(=O)Nc3cccc4c(C5CCC(=O)NC5=O)nn(C)c34)CC2(F)F)cccc1-c1ccc(N2CCc3cccc(C(=O)Nc4nc5ccccc5s4)c3C2)nc1C(=O)O (stereo partly drawn) [Compound 197b, 6-(8-(benzo[d]thiazol-2-ylcarbamoyl)-3,4-dihydroisoquinolin-2(1H)-yl)-3-(3-(3-((4R)-1-(2-((3-(2,6-dioxopiperidin-3-yl)-1-methyl-1H-indazol-7-yl)amino)-2-oxoethyl)-3,3-difluoropiperidin-4-yl)propoxy)-2-methylphenyl)picolinic acid] | – | –
B (50% ≤ Ymin < 70%) | < 100 nM | Cc1c(O[C@H]2CC[C@H](CCCCN3CCN(c4cccc5c(C6CCC(=O)NC6=O)nn(C)c45)CC3)CC2)cccc1-c1ccc(N2CCc3cccc(C(=O)Nc4nc5ccccc5s4)c3C2)nc1C(=O)O (stereo partly shown) [Compound 204a, 6-(8-(benzo[d]thiazol-2-ylcarbamoyl)-3,4-dihydroisoquinolin-2(1H)-yl)-3-(3-(((1s,4r)-4-(4-(4-(3-(2,6-dioxopiperidin-3-yl)-1-methyl-1H-indazol-7-yl)piperazin-1-yl)butyl)cyclohexyl)oxy)-2-methylphenyl)picolinic acid] | – | –
A (Ymin < 50%) | < 100 nM | Cc1c(OCCC[C@@H]2CCCN(CC(=O)Nc3ccc4c(C5CCC(=O)NC5=O)nn(C)c4c3)C2)cccc1-c1ccc(N2CCc3cccc(C(=O)Nc4nc5ccccc5s4)c3C2)nc1C(=O)O (stereo partly drawn) [Compound 207a, 6-(8-(benzo[d]thiazol-2-ylcarbamoyl)-3,4-dihydroisoquinolin-2(1H)-yl)-3-(3-(3-((3S)-1-(2-((3-(2,6-dioxopiperidin-3-yl)-1-methyl-1H-indazol-6-yl)amino)-2-oxoethyl)piperidin-3-yl)propoxy)-2-methylphenyl) picolinic acid] | – | –
A (Ymin < 50%) | < 100 nM | Cc1c(OCCC[C@H]2CCCN(CC(=O)Nc3ccc4c(C5CCC(=O)NC5=O)nn(C)c4c3)C2)cccc1-c1ccc(N2CCc3cccc(C(=O)Nc4nc5ccccc5s4)c3C2)nc1C(=O)O (stereo partly drawn) [Compound 207b, 6-(8-(benzo[d]thiazol-2-ylcarbamoyl)-3,4-dihydroisoquinolin-2(1H)-yl)-3-(3-(3-((3R)-1-(2-((3-(2,6-dioxopiperidin-3-yl)-1-methyl-1H-indazol-6-yl)amino)-2-oxoethyl)piperidin-3-yl)propoxy)-2-methylphenyl)picolinic acid] | B (50% ≤ Ymin < 70%) | < 100 nM
B (50% ≤ Ymin < 70%) | 100 to 1000 nM | Cc1c(OCC(F)(F)CN2C[C@@H](C)N(CC(=O)Nc3cccc4c(C5CCC(=O)NC5=O)nn(C)c34)[C@@H](C)C2)cccc1-c1ccc(N2CCc3cccc(C(=O)Nc4nc5ccccc5s4)c3C2)nc1C(=O)O (stereo partly drawn) [Compound 209a, 6-[8-(1,3-benzothiazol-2-ylcarbamoyl)-3,4-dihydro-1H-isoquinolin-2-yl]-3-[3-[3-[(3R,5S)-4-[2-[[3-(2,6-dioxo-3-piperidyl)-1-methyl-indazol-7-yl]amino]-2-oxo-ethyl]-3,5-dimethyl-piperazin-1-yl]-2,2-difluoro-propoxy]-2-methyl-phenyl]pyridine-2-carboxylic acid] | – | –
